In US6344178B1, “Method for the preparation of facial metal tricarbonyl compounds and their use in the labelling of biologically active substrates” (Mallinckrodt Inc., priority 1997, dated 2002):

System: coloncarcinoma cells HT29
Test: Kd on coloncarcinoma cells HT29
Format: binding
Description: 0.9 ml of [^99mTc(OH2)3(CO)3]^+ as prepared in example 1 is mixed with 0.1 ml of 10^−3M His-Neurotensin(8-13) (HRRPYIIL) and kept in a sealed tube at 75° C. for one hour. After this time the reaction mixture is cooled to room temperature. As evident from reversed phase column HPLC the yield is >95%. The Kd of this compound on coloncarcinoma cells HT29 is 1.0 nM.

Sequence “HRRPYIIL [His-Neurotensin(8-13), His-Neurotensin(8-13) (HRRPYIIL) labelled with [99mTc(OH2)3(CO)3]+]” has a Kd of 1 nM.
